Laboratory results as given in patent US9339471B2, “Long acting dual release product containing carbinoxamine and pseudoephedrine” (E5 PHARMA, LLC, priority 2007, dated 2016).

Experiment: Single dose fasted bioavailability study, 4 mg immediate release carbinoxamine maleate tablet
Type: in vivo
Set-up: Plasma concentration of carbinoxamine: unit not given here
Details: for Cmax / Tmax / half-life / AUC(0-t) / MRT: 4 mg
Description: A single dose fasted bioavailability study was undertaken using four milligram immediate release carbinoxamine maleate tablets formulated in an immediate release format. Samples were taken over a forty eight hours period after administration of the drug, and the first meal was allowed to be ingested four hours after administration. Table 3 compares the observed pharmacokinetics from this test to those observed by Stockis et al. in Arzneim.-Forsch 1992, 42(12):1478-81, and Stockis et al. in Arzneim.-Forsch 1995, 45(9) 1009-1012.
FIG. 1 is a mean plasma concentration-time profile of the carbinoxamine after administering the immediate release tablet in the fasted state from time 0 to time 48 hours. Graph (A) is the linear ordinate; graph (B) is the log-linear ordinate.

[1] = human, plasma, po, Our study, Tablet 4 mg
[2] = human, plasma, po, fasted, Mean
[3] = human, plasma, po, fasted, subject 101
[4] = human, plasma, po, fasted, subject 102
[5] = human, plasma, po, fasted, subject 103

CN(C)CCOC(c1ccc(Cl)cc1)c1ccccn1 (centres unmarked) [carbinoxamine, 2-[(4-chlorophenyl)-2-pyridinylmethoxy]-N,N-dimethylethanamine (Z)-2-butenedioate (1:1)]
Plasma concentration of carbinoxamine (fasted, 0 h, subject 101T): blq
Plasma concentration of carbinoxamine (fasted, 0 h, subject 102T): blq
Plasma concentration of carbinoxamine (fasted, 0 h, subject 103T): blq
Plasma concentration of carbinoxamine (fasted, 0.5 h, T-Mean): 315.41
Plasma concentration of carbinoxamine (fasted, 0.5 h, subject 101T): 434.78
Plasma concentration of carbinoxamine (fasted, 0.5 h, subject 102T): 459.42
Plasma concentration of carbinoxamine (fasted, 0.5 h, subject 103T): 52.04
Plasma concentration of carbinoxamine (fasted, 1 h, T-Mean): 4153.31
Plasma concentration of carbinoxamine (fasted, 1 h, subject 101T): 5908.19
Plasma concentration of carbinoxamine (fasted, 1 h, subject 102T): 4949.36
Plasma concentration of carbinoxamine (fasted, 1 h, subject 103T): 1602.38
Plasma concentration of carbinoxamine (fasted, 2 h, T-Mean): 6406.31
Plasma concentration of carbinoxamine (fasted, 2 h, subject 101T): 6488.14
Plasma concentration of carbinoxamine (fasted, 2 h, subject 102T): 5684.72
Plasma concentration of carbinoxamine (fasted, 2 h, subject 103T): 7046.07
Plasma concentration of carbinoxamine (fasted, 3 h, T-Mean): 7062.72
Plasma concentration of carbinoxamine (fasted, 3 h, subject 101T): 8022.80
Plasma concentration of carbinoxamine (fasted, 3 h, subject 102T): 6592.16
Plasma concentration of carbinoxamine (fasted, 3 h, subject 103T): 6573.21
Plasma concentration of carbinoxamine (fasted, 4 h, T-Mean): 6647.30
Plasma concentration of carbinoxamine (fasted, 4 h, subject 101T): 7860.85
Plasma concentration of carbinoxamine (fasted, 4 h, subject 102T): 6236.91
Plasma concentration of carbinoxamine (fasted, 4 h, subject 103T): 5854.14
Plasma concentration of carbinoxamine (fasted, 5 h, T-Mean): 6515.83
Plasma concentration of carbinoxamine (fasted, 5 h, subject 101T): 7726.57
Plasma concentration of carbinoxamine (fasted, 5 h, subject 102T): 6649.03
Plasma concentration of carbinoxamine (fasted, 5 h, subject 103T): 5171.89
Plasma concentration of carbinoxamine (fasted, 6 h, T-Mean): 5903.78
Plasma concentration of carbinoxamine (fasted, 6 h, subject 101T): 7251.86
Plasma concentration of carbinoxamine (fasted, 6 h, subject 102T): 6097.18
Plasma concentration of carbinoxamine (fasted, 6 h, subject 103T): 4362.30
Plasma concentration of carbinoxamine (fasted, 8 h, T-Mean): 5510.70
Plasma concentration of carbinoxamine (fasted, 8 h, subject 101T): 6849.38
Plasma concentration of carbinoxamine (fasted, 8 h, subject 102T): 5707.15
Plasma concentration of carbinoxamine (fasted, 8 h, subject 103T): 3975.57
Plasma concentration of carbinoxamine (fasted, 12 h, T-Mean): 4292.77
Plasma concentration of carbinoxamine (fasted, 12 h, subject 101T): 5821.63
Plasma concentration of carbinoxamine (fasted, 12 h, subject 102T): 4387.40
Plasma concentration of carbinoxamine (fasted, 12 h, subject 103T): 2669.29
Plasma concentration of carbinoxamine (fasted, 24 h, T-Mean): 2144.60
Plasma concentration of carbinoxamine (fasted, 24 h, subject 101T): 2632.77
Plasma concentration of carbinoxamine (fasted, 24 h, subject 102T): 2395.51
Plasma concentration of carbinoxamine (fasted, 24 h, subject 103T): 1405.53
Plasma concentration of carbinoxamine (fasted, 36 h, T-Mean): 1371.30
Plasma concentration of carbinoxamine (fasted, 36 h, subject 101T): 1541.30
Plasma concentration of carbinoxamine (fasted, 36 h, subject 102T): 1516.80
Plasma concentration of carbinoxamine (fasted, 36 h, subject 103T): 1055.79
Plasma concentration of carbinoxamine (fasted, 48 h, T-Mean): 876.29
Plasma concentration of carbinoxamine (fasted, 48 h, subject 101T): 1102.33
Plasma concentration of carbinoxamine (fasted, 48 h, subject 102T): 1003.18
Plasma concentration of carbinoxamine (fasted, 48 h, subject 103T): 528.37
Cmax [1]: 7.2 ng/mL
Tmax [1]: 3.3 h
half-life [1]: 18.3 h
AUC(0-t) [2]: 161 ng·h/mL
Cmax [2]: 7.24 ng/mL
MRT [2]: 24.1 h
Tmax [2]: 3.33 h
half-life [2]: 18.4 h
AUC(0-t) (human, plasma, po, fasted, Mean, first AUC column): 137 ng·h/mL
Cmax [3]: 8.02 ng/mL
MRT [3]: 24.7 h
Tmax [3]: 3 h
half-life [3]: 19.1 h
AUC(0-t) (human, plasma, po, fasted, subject 101, first AUC column): 169 ng·h/mL
AUC(0-t) (human, plasma, po, fasted, subject 101, second AUC column): 200 ng·h/mL
Cmax [4]: 6.65 ng/mL
MRT [4]: 25.9 h
Tmax [4]: 5 h
half-life [4]: 19.1 h
AUC(0-t) (human, plasma, po, fasted, subject 102, first AUC column): 143 ng·h/mL
AUC(0-t) (human, plasma, po, fasted, subject 102, second AUC column): 171 ng·h/mL
Cmax [5]: 7.05 ng/mL
MRT [5]: 21.7 h
Tmax [5]: 2 h
half-life [5]: 16.8 h
AUC(0-t) (human, plasma, po, fasted, subject 103, first AUC column): 98.4 ng·h/mL
AUC(0-t) (human, plasma, po, fasted, subject 103, second AUC column): 111 ng·h/mL
AUC (human, plasma, po, Our study, Tablet 4 mg, read-out: AUC0-* ·): 161 ng·h/mL
AUC(0-t) (plasma, po, Our study, Tablet 4 mg, AUC0-48): 137 ng·h/mL
